These results are taken from PMC7935113, “Development and in vivo evaluation of intranasal formulations of parathyroid hormone (1-34)” (Drug Delivery, 2021).

Read-outs that look alike come from different tables or passages of the source.

The test system of data set [1] is Human nasal epithelial cells (HNEpCs). Particulars: MTT, n = 8.
Protocol: Human nasal epithelial cells (HNEpCs) purchased from the American Type Culture Collection (Rockville, MD, USA) were used as an in vitro model of the nasal mucosa. The cells were cultured in culture medium (Eagle’s minimum essential medium (MEM) supplemented with 10% (v/v) fetal bovine serum (FBS) and 1% penicillin/streptomycin solution) and maintained in 5% CO2/95% humidified air at 37 °C.
HNEpCs were seeded at a density of 5 × 10^3 cells/well in 96-well plates (Corning, NY, USA) and cultured for 24 h before the experiment. […] The culture medium was used as a negative control, and 20% dimethyl sulfoxide (DMSO) was used as a positive control. Following 6 h of incubation, the test solutions were removed, and the cytotoxicity was determined using a commercial MTT kit. The cells were washed, and then, MTT reagent in culture medium was added for a further 3 h incubation at 37 °C. The remaining media was removed, and 200 μL DMSO was added to each well to dissolve the formazan crystals. The resulting absorbance was read at 490 nm.
Data set [2] deals with HNEpC layers. Nature of the data set: Permeability of FITC-PTH across HNEpC layers (Transwell). The data set is classed as in vitro ADME, human. To be noted: HNEpC monolayer, apical to basolateral, 10 μg/mL FITC-PTH, all tested concentrations (0.015%, 0.010% and 0.005%), fluorescence. The protocol: […] were seeded at a density of 10 × 10^4 cells/well on Transwell® supports with a pore size of 0.4 μm. TEER (Ω·cm^2) was determined using a Millicell electrical resistance system (ERS) voltohmmeter (Millipore, Bedford, MA, USA). Cell monolayers with TEER values exceeding 500 Ω·cm^2 were used for further experiments. […] Prior to the permeability experiment, the cell monolayers were equilibrated with 1.0 mL Hank's balanced salt solution (HBSS) in the basolateral compartment and 0.4 mL culture medium in the apical chamber for 30 min. Subsequently, the apical culture medium was withdrawn, and 0.2 mL solution of a test solution was applied. Thereafter, 200 μL receiver samples from the basolateral compartment were taken every 30 min for 4 h, and then, 200 μL fresh HBSS was added to the basolateral compartment.

Data set [3] relates to HNEpCs. Nature of the data set: Cellular internalization of FITC-PTH. Type of data set: cell-based, human. The method, then: A 20 μg/mL FITC-PTH solution without any permeation enhancer was used as a negative control, and a 20 μg/mL FITC-PTH solution supplemented with 0.1% Triton X-100 was used as a positive control. The test solutions were added to the corresponding wells, and the amount of cellularly internalized PTH was measured after 30 min following sample applications. […] Finally, the cells were lysed with cell lysis buffer. The resulting lysis products were collected for fluorescence measurement and protein content measurement. The fluorescence measurement was carried out using a Varioskan LUX multimode microplate reader with ex/em 485/518 nm, and the protein content was measured by using a commercial BCA protein assay kit (Solarbio Life Sciences). The amount of internalized PTH(1-34) in each well was normalized to the protein content.

For data set [4], the system named is HNEpC monolayers. Description: Effect of permeation enhancers on TEER of HNEpC monolayers. Type of data set: cell-based, human. To be noted: HNEpC monolayer, apical application, all solutions (0.005%, 0.010%, 0.015%), n = 8. The protocol: HNEpCs were seeded at a density of 10 × 10^4 cells/well on Transwell® supports with a pore size of 0.4 μm. TEER (Ω·cm^2) was determined using a Millicell electrical resistance system (ERS) voltohmmeter (Millipore, Bedford, MA, USA). Cell monolayers with TEER values exceeding 500 Ω·cm^2 were used for further experiments. […] Prior to the permeability experiment, the cell monolayers were equilibrated with 1.0 mL Hank’s balanced salt solution (HBSS) in the basolateral compartment and 0.4 mL culture medium in the apical chamber for 30 min. Subsequently, the apical culture medium was withdrawn, and 0.2 mL solution of a test solution was applied. Thereafter, 200 μL receiver samples from the basolateral compartment were taken every 30 min for 4 h, and then, 200 μL fresh HBSS was added to the basolateral compartment. Finally, the FITC-PTH concentration in the collected samples was analyzed using a Varioskan LUX multimode microplate reader with ex/em 485/518 nm.
HNEpC monolayers were cultured as described above. The baseline TEER was measured before the experiment for 60 min. […] A chitosan solution at 0.003% w/v in culture medium was used as a positive control. The results for each experiment are presented as percentages relative to their respective baseline TEER.

Data set [5] relates to nasal septum mucosae. Nature of the data set: Nasal mucosal toxicity: mucosa morphology (SEM) after intranasal dosing. Particulars: SD rats, citric acid solutions (0.2-0.6%), 15 consecutive days.
Protocol: (§1) Mucosa morphology was considered a direct indicator of nasal mucosal toxicity. […] This mucosa morphology study was performed in vivo using healthy male SD rats. The rats were lightly anesthetized with diethyl ether and intranasally administered test solutions. Generally, 0.1 mL of the corresponding solution was equally administered to the two nostrils of one rat for 15 consecutive days. Finally, 2 days after stopping intranasal administration, the rats were sacrificed by an intraperitoneal injection of urethane and their hearts were perfused with saline. The nasal septum mucosae were then carefully peeled off, fixed with 3% w/v glutaraldehyde (diluted by PBS), and dehydrated with a gradient of ethanol. Finally, the fixed nasal mucosae were dried at the CO2 critical point, sprayed with ion sputtering, and observed under SEM.
The subject of data set [6] is nasal septum mucosae. To be noted: rat, in vivo.
Protocol: as §1
The conditions of data set [7]: cited from earlier work.
Data set [8] in a line: Isoelectric point by capillary electrophoresis. Type of data set: physicochemical. Particulars: authors' previous capillary electrophoresis (CE) analysis, no reference given. The text has this: The essential point for the development of a liquid PTH(1-34) formulation was ensuring the stability of PTH(1-34). In this context, the aqueous environment was screened by utilizing MD simulations and HPLC analysis. In recent decades, MD simulations have been increasingly reported to investigate the conformational equilibria of polypeptides in solution (Colombo et al., [2002]). […] The HPLC analysis results further confirmed that PTH(1-34) had the best chemical stability in 0.008 M ABS. According to our previous capillary electrophoresis (CE) analysis, the isoelectric point (pI) of PTH(1-34) is approximately pH 7.77, indicating easy solubility and stability under acidic condition. The pH values of PBS and ABS were 7.4 and 4.0, respectively. Consequently, 0.008 M ABS had the best stability performance, most likely due to its acidic pH value and low ionic strength.

The nature of data set [9]: Chemical stability of PTH(1-34) in aqueous buffer solutions at 40 °C (HPLC). The data set is classed as physicochemical. The protocol:
HPLC measurements were performed with an HPLC instrument equipped with a photodiode array detector. A C-18 column (Cosmosil 250 × 4.6 mm, 5 µm, Japan) was used, and the sample solutions were applied via an autosampler (Merck-Hitachi, Darmstadt, Germany). Analysis of PTH(1-34) and its degradation products was performed under the following conditions. Mobile phase A was 0.1% (v/v) TFA in acetonitrile, and mobile phase B was 0.1% TFA (v/v) in water. […] A detection wavelength of 214 nm and column temperature of 25 °C were used.
Stability studies were carried out to clarify the influence of aqueous solvent on the stability of PTH(1-34) during storage and to determine the optimal aqueous environment. First, PBS and ABS were prepared as solvent solutions: 0.063 M PBS was prepared by dissolving 3.73 g sodium dihydrogen phosphate and 36.55 g disodium hydrogen phosphate in 1000 mL Milli-Q water; 0.032 M ABS was prepared as by dissolving 0.664 g glacial acetic acid and 1.64 g sodium acetate trihydrate together in 1000 mL Milli-Q water. Then, 0.016 M ABS, 0.008 M ABS, and 0.004 M ABS were prepared by diluting 0.032 M ABS with Milli-Q water. Following preparation, the pH values of the PBS and ABS solutions were measured using a pH meter (Mettler Toledo FiveEasy Plus).
To examine the stability of peptides in each aqueous medium, 3 mg/mL PTH(1-34) was separately incubated in 0.063 M PBS, 0.032 M ABS, 0.016 M ABS, 0.008 M ABS and 0.004 M ABS. Aliquots of PTH(1-34) were individually incubated at 40 °C, and the PTH(1-34) content was analyzed at 0, 6, 12, 24, 36, 48, 60 and 72 h postincubation. In addition, the impurities of PTH(1-34) in the 0.032 M ABS, 0.016 M ABS, 0.008 M ABS and 0.004 M ABS solutions were quantified by HPLC at the time points of 0, 24, 72 and 120 h postincubation at 40 °C.

Turning to `C[S+](C)[O-]` [DMSO, dimethyl sulfoxide], in data set [1] (6 h, 20% DMSO positive control, vs culture medium), the HNEpC viability result is “statistically lower”.
As for `O=C(O)CC(O)(CC(=O)O)C(=O)O` [citric acid], the HNEpC viability is on record as 73.03% in data set [1] (6 h exposure, concentration of 0.1%); “comparable with that of the negative control” in data set [1] (6 h exposure, concentrations of 0.01% and 0.05%, vs culture medium). The “duration of enhanced permeation rate of FITC-PTH relative to control” value in data set [2] was 60 min. Also, in data set [3] (20 μg/mL FITC-PTH with 0.005%, 0.010%, 0.015% enhancer, 30 min, fluorescence 485/518 nm, n = 8), the “cellular internalization of FITC-PTH (normalized to protein content)” value was “did not exhibit an obvious promotion effect”. For the same molecule, the “time point of TEER reversal to the baseline level” value in [4] came to 40 min. Also, the “observations in rats during intranasal administration” value in data set [5] is on record as “bleeding of the nose was observed”.
Take Triton X-100: the “cellular internalization of FITC-PTH (normalized to protein content)” value in [3] (20 μg/mL FITC-PTH with 0.1% Triton X-100, positive control) is given as “significantly promoted”.
As to “macrogol 15-hydroxystearate [Kolliphor® HS·15]”, the “observations in rats during intranasal administration” value in data set [6] was “did not induce any observed discomfort”.
For the molecule nafarelin, the bioavailability entry in data set [7] (in vivo) is “lower than 3%”.
For the molecule parathyroid hormone (1-34) [PTH(1-34)], the “isoelectric point (pI)” value in data set [8] is listed as around 7.77 pH. Further, the “impurities of PTH(1-34)” value in data set [9] (3 mg/mL in 0.008 M ABS compared with 0.032, 0.016 and 0.004 M ABS, 120 h, HPLC) is reported as “lowest amount of impurities”. For the same molecule, in [9] (chemical stability, 3 mg/mL in 0.032, 0.016, 0.008 and 0.004 M ABS (pH 4.0), up to 72 h, HPLC UV 214 nm), the “PTH(1-34) content” value is listed as “no detectable decrease”. In data set [9] (chemical stability, 3 mg/mL in 0.063 M PBS (pH 7.4), after 72 h of incubation, HPLC UV 214 nm), the “content of PTH(1-34)” value worked out at 76.34%.
salmon calcitonin: the bioavailability result in data set [7] (intranasal peptide formulations devoid of permeation enhancers, ref Ozsoy et al., [2009]) was “lower than 3%”.
